Data from PubChem BioAssay (NCI).
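1) Cells in 96-well plates. 2) Compound, 48 h, 5 concentrations. 3) Linear interpolation between surrounding doses. 4) Unreached endpoint = highest concentration. TGI is the concentration that stops growth completely.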

Assays:
Experiment in all cases: NCI anticancer screen, dose series, 48 h
[1] = system: SK-MEL-5 melanoma
[2] = system: MCF7 breast
[3] = system: UACC-62 melanoma
[4] = system: PC-3 prostate
[5] = system: OVCAR-5 ovarian
[6] = system: UO-31 renal
[7] = system: CCRF-CEM leukemia
[8] = system: LOX IMVI melanoma
[9] = system: M14 melanoma
[10] = system: OVCAR-3 ovarian
[11] = system: HOP-92 NSCLC
[12] = system: MDA-N
[13] = system: RXF 393 renal
[14] = system: NCI-H226 lung
[15] = system: SW-620 colon
[16] = system: EKVX NSCLC
[17] = system: MDA-MB-435
[18] = system: HOP-62 NSCLC
[19] = system: SK-MEL-2 melanoma
[20] = system: SF-295 CNS
[21] = system: TK-10 renal
[22] = system: MDA-MB-231 breast
[23] = system: T-47D breast
[24] = system: MOLT-4 leukemia
[25] = system: A498 renal
[26] = system: HT29 colon
[27] = system: SNB-75 CNS
[28] = system: HCT-15 colon
[29] = system: SNB-19 CNS
[30] = system: SN12C renal
[31] = system: HCC-2998 colon
[32] = system: SF-539 CNS
[33] = system: SK-OV-3 ovarian
[34] = system: NCI-H522 lung
[35] = system: UACC-257 melanoma
[36] = system: 786-0 renal
[37] = system: MALME-3M melanoma
[38] = system: IGROV1 ovarian
[39] = system: DU-145 prostate
[40] = system: BT-549 breast
[41] = system: A549 NSCLC
[42] = system: KM12 colon
[43] = system: CAKI-1 renal
[44] = system: NCI/ADR-RES ovarian
[45] = system: HCT-116 colon
[46] = system: U251 CNS
[47] = system: RPMI-8226 leukemia
[48] = system: SF-268 CNS
[49] = system: SR leukemia
[50] = system: NCI-H460 lung
[51] = system: K-562 leukemia
[52] = system: COLO 205 colon
[53] = system: ACHN renal
[54] = system: NCI-H23 lung
[55] = system: OVCAR-8 ovarian
[56] = system: SK-MEL-28 melanoma
[57] = system: OVCAR-4 ovarian
[58] = system: HS 578T breast
[59] = system: HL-60(TB) leukemia

## S=c1[nH]nc(Cn2c3ccc(Br)cc3c3nc4ccccc4nc32)o1
[1]
  TGI: > 100 µM
[2]
  TGI: > 100 µM
[3]
  TGI: > 82.6 µM
[4]
  TGI: > 93.2 µM
[5]
  TGI: > 100 µM
[6]
  TGI: 40.8 µM
[7]
  TGI: > 100 µM
[8]
  TGI: > 65.4 µM
[9]
  TGI: > 100 µM
[10]
  TGI: > 73.7 µM
[11]
  TGI: 47 µM
[12]
  TGI: > 100 µM
[13]
  TGI: > 60 µM
[14]
  TGI: > 100 µM
[15]
  TGI: > 31.6 µM
[16]
  TGI: > 100 µM
[17]
  TGI: > 31.6 µM
[18]
  TGI: 99.2 µM
[19]
  TGI: > 88.6 µM
[20]
  TGI: > 100 µM
[21]
  TGI: > 100 µM
[22]
  TGI: > 100 µM
[23]
  TGI: > 100 µM
[24]
  TGI: 60.5 µM
[25]
  TGI: > 100 µM
[26]
  TGI: > 100 µM
[27]
  TGI: > 100 µM
[28]
  TGI: > 100 µM
[29]
  TGI: > 100 µM
[30]
  TGI: > 100 µM
[31]
  TGI: > 100 µM
[32]
  TGI: > 80.7 µM
[33]
  TGI: > 100 µM
[34]
  TGI: 69.6 µM
[35]
  TGI: > 100 µM
[36]
  TGI: > 100 µM
[37]
  TGI: > 100 µM
[38]
  TGI: > 90.2 µM
[39]
  TGI: > 100 µM
[40]
  TGI: > 100 µM
[41]
  TGI: 59.3 µM
[42]
  TGI: > 100 µM
[43]
  TGI: > 100 µM
[44]
  TGI: > 100 µM
[45]
  TGI: > 100 µM
[46]
  TGI: > 92.4 µM
[47]
  TGI: 6.82 µM
[48]
  TGI: > 100 µM
[49]
  TGI: > 100 µM
[50]
  TGI: > 100 µM
[51]
  TGI: > 100 µM
[52]
  TGI: > 100 µM
[53]
  TGI: > 100 µM
[54]
  TGI: > 100 µM
[55]
  TGI: > 100 µM
[56]
  TGI: > 79.2 µM

## CC(C)C(=O)Cc1ccc2ccccc2n1
[57]
  TGI: > 100 µM
[1]
  TGI: > 100 µM
[2]
  TGI: > 100 µM
[3]
  TGI: > 100 µM
[4]
  TGI: > 100 µM
[5]
  TGI: > 100 µM
[6]
  TGI: > 100 µM
[7]
  TGI: > 100 µM
[8]
  TGI: > 100 µM
[9]
  TGI: > 100 µM
[10]
  TGI: > 100 µM
[11]
  TGI: > 100 µM
[12]
  TGI: > 100 µM
[13]
  TGI: > 100 µM
[14]
  TGI: > 100 µM
[15]
  TGI: > 100 µM
[16]
  TGI: > 100 µM
[17]
  TGI: > 100 µM
[18]
  TGI: > 100 µM
[19]
  TGI: > 100 µM
[20]
  TGI: > 100 µM
[21]
  TGI: > 100 µM
[22]
  TGI: > 100 µM
[23]
  TGI: > 100 µM
[25]
  TGI: > 100 µM
[26]
  TGI: > 100 µM
[27]
  TGI: > 100 µM
[28]
  TGI: > 100 µM
[29]
  TGI: > 100 µM
[30]
  TGI: > 100 µM
[31]
  TGI: > 100 µM
[33]
  TGI: > 100 µM
[34]
  TGI: > 100 µM
[58]
  TGI: > 100 µM
[35]
  TGI: > 100 µM
[36]
  TGI: > 100 µM
[37]
  TGI: > 100 µM
[38]
  TGI: > 100 µM
[39]
  TGI: > 100 µM
[59]
  TGI: > 100 µM
[40]
  TGI: > 100 µM
[41]
  TGI: > 100 µM
[42]
  TGI: > 100 µM
[43]
  TGI: > 100 µM
[44]
  TGI: > 100 µM
[45]
  TGI: > 100 µM
[46]
  TGI: > 100 µM
[47]
  TGI: 19.9 µM
[48]
  TGI: > 100 µM
[50]
  TGI: > 100 µM
[52]
  TGI: > 100 µM
[53]
  TGI: > 100 µM
[54]
  TGI: > 100 µM
[55]
  TGI: > 100 µM
[56]
  TGI: > 100 µM

## NC(Cc1cc(I)c(Oc2ccc(O)c(I)c2)c(I)c1)C(=O)O (configuration not stated)
[57]
  TGI: > 100 µM
[1]
  TGI: > 100 µM
[2]
  TGI: > 100 µM
[3]
  TGI: > 100 µM
[4]
  TGI: > 100 µM
[5]
  TGI: > 100 µM
[6]
  TGI: > 100 µM
[8]
  TGI: > 100 µM
[9]
  TGI: > 100 µM
[10]
  TGI: > 100 µM
[11]
  TGI: > 100 µM
[12]
  TGI: > 100 µM
[13]
  TGI: > 100 µM
[14]
  TGI: > 100 µM
[15]
  TGI: > 100 µM
[16]
  TGI: > 100 µM
[17]
  TGI: > 100 µM
[18]
  TGI: > 100 µM
[19]
  TGI: 41 µM
[20]
  TGI: > 100 µM
[21]
  TGI: > 100 µM
[22]
  TGI: > 100 µM
[23]
  TGI: > 100 µM
[25]
  TGI: 92.6 µM
[26]
  TGI: > 100 µM
[27]
  TGI: > 100 µM
[28]
  TGI: > 100 µM
[29]
  TGI: > 100 µM
[30]
  TGI: > 100 µM
[33]
  TGI: > 100 µM
[34]
  TGI: > 100 µM
[58]
  TGI: > 100 µM
[35]
  TGI: > 100 µM
[36]
  TGI: > 100 µM
[37]
  TGI: > 100 µM
[38]
  TGI: > 100 µM
[39]
  TGI: > 100 µM
[40]
  TGI: > 100 µM
[41]
  TGI: > 100 µM
[42]
  TGI: > 100 µM
[43]
  TGI: > 100 µM
[44]
  TGI: > 100 µM
[45]
  TGI: > 100 µM
[46]
  TGI: > 100 µM
[47]
  TGI: 84 µM
[48]
  TGI: > 100 µM
[52]
  TGI: > 100 µM
[53]
  TGI: > 100 µM
[54]
  TGI: > 100 µM
[55]
  TGI: > 100 µM
[56]
  TGI: > 100 µM

## COc1ccc(OC/C(N)=N/NC(=O)c2ccncc2)cc1
[57]
  TGI: > 100 µM
[2]
  TGI: > 100 µM
[3]
  TGI: > 100 µM
[4]
  TGI: > 100 µM
[5]
  TGI: > 100 µM
[7]
  TGI: > 100 µM
[8]
  TGI: > 100 µM
[9]
  TGI: > 100 µM
[10]
  TGI: > 100 µM
[11]
  TGI: > 100 µM
[12]
  TGI: > 100 µM
[13]
  TGI: > 100 µM
[15]
  TGI: > 100 µM
[16]
  TGI: > 100 µM
[17]
  TGI: > 100 µM
[18]
  TGI: > 100 µM
[19]
  TGI: > 100 µM
[20]
  TGI: > 100 µM
[21]
  TGI: > 100 µM
[22]
  TGI: > 100 µM
[23]
  TGI: > 100 µM
[24]
  TGI: > 100 µM
[25]
  TGI: > 100 µM
[26]
  TGI: > 100 µM
[27]
  TGI: > 100 µM
[28]
  TGI: > 100 µM
[29]
  TGI: > 100 µM
[30]
  TGI: > 100 µM
[31]
  TGI: > 100 µM
[32]
  TGI: > 100 µM
[33]
  TGI: > 100 µM
[34]
  TGI: > 100 µM
[58]
  TGI: > 100 µM
[35]
  TGI: > 100 µM
[36]
  TGI: > 100 µM
[37]
  TGI: > 100 µM
[38]
  TGI: > 100 µM
[39]
  TGI: > 100 µM
[59]
  TGI: > 100 µM
[40]
  TGI: > 100 µM
[41]
  TGI: > 100 µM
[42]
  TGI: > 100 µM
[43]
  TGI: > 100 µM
[44]
  TGI: > 100 µM
[45]
  TGI: > 100 µM
[46]
  TGI: > 100 µM
[47]
  TGI: > 100 µM
[48]
  TGI: > 100 µM
[50]
  TGI: > 100 µM
[51]
  TGI: > 100 µM
[52]
  TGI: > 100 µM
[53]
  TGI: > 100 µM
[54]
  TGI: > 100 µM
[55]
  TGI: > 100 µM
[56]
  TGI: > 100 µM
